According to patent US20250275959A1, “COMPOUNDS AND METHODS OF THEIR USE” (LEXICON PHARMACEUTICALS, INC., priority 2024, published 2025):

Molecular target: hACSL5 (Homo sapiens (Human), UniProt Q9ULC5)
Experiment: Human ACSL5 coupled enzyme Amplex Red assay
Type: biochemical
Details: read-out: hACSL5 IC50
Protocol: Human ACSL5 (33-683) was cloned with a C-terminal 6 His tag and expressed in insect cells (sf9) as per standard insect cell expression protocols. Human ACSL5 was enriched by affinity nickel affinity chromatography followed by Superdex S200 gel filtration column equilibrated in 20 mM HEPES pH 7.8, 500 mM NaCl, 1 mM TCEP, 5% glycerol, 0.1% Triton X^100.
Inhibition of ACSL5 enzyme activity was monitored with a coupled enzyme Amplex Red assay.
The assay is carried out in 384-well microtiterplates. In a total volume of […], compounds are preincubated with 20 nM ACSL5, in a buffer containing 150 mM MOPS-NaOH, 12 mM MgCl2, 0.03% (v/v) Triton X-100, 2.79 U mL-1 Peroxidase and 24 U mL-1 Acyl-CoA Oxidase (pH 7.6). The reaction is started by the addition of substrate and co factors (25 μM oleate, 30 μM CoA, 1 mM ATP and 50 μM Amplex Red) and the fluorescence detected after 10 minutes at 25° C. with a fluorescence reader (BMG-Fluostar; BMG-Technologies) using an excitation wavelength of 535 nm and an emission wavelength of 590 nm.
Concentration-response titration points for each compound tested were filled to the Hill equation yielding concentrations of half maximal inhibition […] and maximal inhibition values.

Sequence of hACSL5 (Q9ULC5 33-683): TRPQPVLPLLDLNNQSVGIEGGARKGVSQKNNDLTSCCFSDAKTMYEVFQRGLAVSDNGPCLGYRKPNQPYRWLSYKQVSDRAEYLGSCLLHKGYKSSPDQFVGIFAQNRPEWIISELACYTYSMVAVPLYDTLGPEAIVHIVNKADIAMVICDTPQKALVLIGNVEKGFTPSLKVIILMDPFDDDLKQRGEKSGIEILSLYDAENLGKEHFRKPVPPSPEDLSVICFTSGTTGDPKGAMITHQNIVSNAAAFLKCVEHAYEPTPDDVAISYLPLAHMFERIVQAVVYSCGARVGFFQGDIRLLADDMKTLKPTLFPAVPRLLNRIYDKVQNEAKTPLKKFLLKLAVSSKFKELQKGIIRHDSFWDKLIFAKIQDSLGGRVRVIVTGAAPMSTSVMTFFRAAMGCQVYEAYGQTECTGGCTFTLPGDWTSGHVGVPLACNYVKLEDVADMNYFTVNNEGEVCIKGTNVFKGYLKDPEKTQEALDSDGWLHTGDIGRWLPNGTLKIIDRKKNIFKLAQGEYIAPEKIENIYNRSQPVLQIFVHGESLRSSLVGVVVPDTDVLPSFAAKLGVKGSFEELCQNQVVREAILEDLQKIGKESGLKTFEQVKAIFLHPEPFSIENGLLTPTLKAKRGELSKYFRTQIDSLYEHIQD

Row | SMILES | IC50 [nM]
1 | CC(Oc1ccc(C(=O)NS(=O)(=O)N2CCN(C)CC2)c(Cl)c1Cl)c1cccc(Oc2ccccc2)c1 (racemic) [rac-(R)-2,3-dichloro-N-((4-methylpiperazin-1-yl)sulfonyl)-4-(1-(3-phenoxyphenyl)ethoxy)benzamide] | < 100
2 | CC(Oc1ccc(C(=O)NS(=O)(=O)CCN)c(Cl)c1Cl)c1cccc(Oc2ccccc2)c1 (racemic) [rac-(R)-N-((2-aminoethyl)sulfonyl)-2,3-dichloro-4-(1-(3-phenoxyphenyl)ethoxy)benzamide] | > 500
3 | CC(Oc1ccc(C(=O)NS(=O)(=O)CCN)cc1C(F)(F)F)c1cccc(Oc2ccccc2)c1 (racemic) [rac-(R)-N-((2-aminoethyl)sulfonyl)-4-(1-(3-phenoxyphenyl)ethoxy)-3-(trifluoromethyl)benzamide] | 100 to 500
4 | CC(Oc1ccc(C(=O)NS(=O)(=O)c2ccc(CN)cc2)c(Cl)c1Cl)c1cccc(Oc2ccccc2)c1 (racemic) [rac-(R)-N-((4-(aminomethyl)phenyl)sulfonyl)-2,3-dichloro-4-(1-(3-phenoxyphenyl)ethoxy)benzamide] | < 100
5 | Cc1cc(C(=O)NS(=O)(=O)c2ccc(CN)cc2)ccc1OC(C)c1cccc(Oc2ccccc2)c1 (racemic) [rac-(R)-N-((4-(aminomethyl)phenyl)sulfonyl)-3-methyl-4-(1-(3-phenoxyphenyl)ethoxy)benzamide] | < 100
6 | CC[C@@H](Oc1ccc(C(=O)NS(=O)(=O)N2CCC(OC3CCN(C)CC3)CC2)c(F)c1F)c1cc(OC2CC(OC)C2)ccn1 (stereo partly drawn) [2,3-difluoro-4-((R)-1-(4-((1R,3R)-3-methoxycyclobutoxy)pyridin-2-yl)propoxy)-N-((4-((1-methylpiperidin-4-yl)oxy)piperidin-1-yl)sulfonyl)benzamide] | > 500
7 | CC[C@@H](Oc1ccc(C(=O)NS(=O)(=O)N2CCN(C)CC2)c(F)c1F)c1cc(OC2CC(OC)C2)ccn1 (stereo partly drawn) [2,3-difluoro-4-((R)-1-(4-((1R,3R)-3-methoxycyclobutoxy)pyridin-2-yl)propoxy)-N-((4-methylpiperazin-1-yl)sulfonyl)benzamide] | > 500
8 | CC[C@@H](Oc1ccc(C(=O)NS(=O)(=O)c2ccc(O[C@@H]3CCCN(C)C3)cc2)c(F)c1F)c1ccc(Oc2ccccn2)cn1 [2,3-difluoro-N-((4-(((R)-1-methylpiperidin-3-yl)oxy)phenyl)sulfonyl)-4-((R)-1-(5-(pyridin-2-yloxy)pyridin-2-yl)propoxy)benzamide] | < 100
9 | CC[C@@H](Oc1ccc(C(=O)NS(=O)(=O)c2ccc(O[C@H]3CCCN(C)C3)cc2)c(F)c1F)c1ccc(Oc2ccccn2)cn1 [2,3-difluoro-N-((4-(((S)-1-methylpiperidin-3-yl)oxy)phenyl)sulfonyl)-4-((R)-1-(5-(pyridin-2-yloxy)pyridin-2-yl)propoxy)benzamide] | < 100
10 | CNCc1ccc(S(=O)(=O)NC(=O)c2ccc(OCc3cccc(Oc4ccccc4)c3)c(F)c2F)cc1 [2,3-difluoro-N-((4-((methylamino)methyl)phenyl)sulfonyl)-4-((3-phenoxybenzyl)oxy)benzamide] | < 100
11 | CC[C@@H](Oc1ccc(C(=O)NS(=O)(=O)N2CC3CC(C2)N3C)c(F)c1F)c1ccc(Oc2ccccn2)cn1 [2,3-difluoro-N-((6-methyl-3,6-diazabicyclo[3.1.1]heptan-3-yl)sulfonyl)-4-((R)-1-(5-(pyridin-2-yloxy)pyridin-2-yl)propoxy)benzamide] | < 100
12 | CC[C@@H](Oc1ccc(C(=O)NS(=O)(=O)N2CC3CCC(C2)N3C)c(F)c1F)c1ccc(Oc2ccccn2)cn1 [2,3-difluoro-N-((8-methyl-3,8-diazabicyclo[3.2.1]octan-3-yl)sulfonyl)-4-((R)-1-(5-(pyridin-2-yloxy)pyridin-2-yl)propoxy)benzamide] | < 100
13 | CCOc1ccc(C(C)Oc2ccc(C(=O)NS(=O)(=O)N3CCN(C)CC3)c(F)c2F)nc1 (centres unmarked) [4-(1-(5-ethoxypyridin-2-yl)ethoxy)-2,3-difluoro-N-((4-methylpiperazin-1-yl)sulfonyl)benzamide] | > 500
14 | CCOc1ccc(C(C)Oc2ccc(C(=O)NS(=O)(=O)C3CCNCC3)c(F)c2F)nc1 (centres unmarked) [4-(1-(5-ethoxypyridin-2-yl)ethoxy)-2,3-difluoro-N-(piperidin-4-ylsulfonyl)benzamide] | > 500
15 | CCOc1ccc(C(CC)Oc2ccc(C(=O)NS(=O)(=O)CCCN3CCOCC3)cc2C(F)(F)F)nc1 (centres unmarked) [4-(1-(5-ethoxypyridin-2-yl)propoxy)-N-((3-morpholinopropyl)sulfonyl)-3-(trifluoromethyl)benzamide] | 100 to 500
16 | CCOc1ccc(C(CC)Oc2ccc(C(=O)NS(=O)(=O)c3ccc(OCCNC)cc3)cc2C(F)(F)F)nc1 (centres unmarked) [4-(1-(5-ethoxypyridin-2-yl)propoxy)-N-((4-(2-(methylamino)ethoxy)phenyl)sulfonyl)-3-(trifluoromethyl)benzamide] | < 100
17 | CC[C@@H](Oc1ccc(C(=O)NS(=O)(=O)c2ccc(O[C@@H]3CCCN(C)C3)cc2)c(F)c1F)c1ccc(OCC2CC2)cn1 [4-((R)-1-(5-(cyclopropylmethoxy)pyridin-2-yl)propoxy)-2,3-difluoro-N-((4-(((R)-1-methylpiperidin-3-yl)oxy)phenyl)sulfonyl)benzamide] | 100 to 500
18 | CC[C@@H](Oc1ccc(C(=O)NS(=O)(=O)c2ccc(O[C@H]3CCCN(C)C3)cc2)c(F)c1F)c1ccc(OCC2CC2)cn1 [4-((R)-1-(5-(cyclopropylmethoxy)pyridin-2-yl)propoxy)-2,3-difluoro-N-((4-(((S)-1-methylpiperidin-3-yl)oxy)phenyl)sulfonyl)benzamide] | < 100
19 | CC[C@@H](Oc1ccc(C(=O)NS(=O)(=O)c2ccc(OC3CCN(C)CC3)cc2)c(F)c1F)c1ccc(OCCOC)cn1 [(R)-2,3-difluoro-4-(1-(5-(2-methoxyethoxy)pyridin-2-yl)propoxy)-N-((4-((1-methylpiperidin-4-yl)oxy)phenyl)sulfonyl)benzamide] | > 500
20 | CC[C@@H](Oc1ccc(C(=O)NS(=O)(=O)N2CCC(OC3CCN(C)CC3)CC2)c(F)c1F)c1ccc(OCCOC)cn1 [(R)-2,3-difluoro-4-(1-(5-(2-methoxyethoxy)pyridin-2-yl)propoxy)-N-((4-((1-methylpiperidin-4-yl)oxy)piperidin-1-yl)sulfonyl)benzamide] | > 500
21 | CC[C@@H](Oc1ccc(C(=O)NS(=O)(=O)N2CC(OC3CCN(C)CC3)C2)c(F)c1F)c1ccc(Oc2ccccn2)cn1 [(R)-2,3-difluoro-N-((3-((1-methylpiperidin-4-yl)oxy)azetidin-1-yl)sulfonyl)-4-(1-(5-(pyridin-2-yloxy)pyridin-2-yl)propoxy)benzamide] | 100 to 500
22 | CC[C@@H](Oc1ccc(C(=O)NS(=O)(=O)N2CCN(CCCF)CC2)c(F)c1F)c1ccc(Oc2ccccn2)cn1 [(R)-2,3-difluoro-N-((4-(3-fluoropropyl)piperazin-1-yl)sulfonyl)-4-(1-(5-(pyridin-2-yloxy)pyridin-2-yl)propoxy)benzamide] | < 100
23 | CC[C@@H](Oc1ccc(C(=O)NS(=O)(=O)N2CCC(OC3CN(C)C3)CC2)c(F)c1F)c1ccc(Oc2ccccn2)cn1 [(R)-2,3-difluoro-N-((4-((1-methylazetidin-3-yl)oxy)piperidin-1-yl)sulfonyl)-4-(1-(5-(pyridin-2-yloxy)pyridin-2-yl)propoxy)benzamide] | < 100
24 | CC[C@@H](Oc1ccc(C(=O)NS(=O)(=O)N2CC3=C(CN(C)C3)C2)c(F)c1F)c1ccc(Oc2ccccn2)cn1 [(R)-2,3-difluoro-N-((5-methyl-3,4,5,6-tetrahydropyrrolo[3,4-c]pyrrol-2(1H)-yl)sulfonyl)-4-(1-(5-(pyridin-2-yloxy)pyridin-2-yl)propoxy)benzamide] | 100 to 500
25 | CC[C@@H](Oc1ccc(C(=O)NS(=O)(=O)N2CC3(CN(C)C3)C2)c(F)c1F)c1ccc(Oc2ccccn2)cn1 [(R)-2,3-difluoro-N-((6-methyl-2,6-diazaspiro[3.3]heptan-2-yl)sulfonyl)-4-(1-(5-(pyridin-2-yloxy)pyridin-2-yl)propoxy)benzamide] | 100 to 500
26 | CC[C@@H](Oc1ccc(C(=O)NS(=O)(=O)N2CC(OC3CCN(C)CC3)C2)c(F)c1F)c1ccc(OCC2CC2)cn1 [(R)-4-(1-(5-(cyclopropylmethoxy)pyridin-2-yl)propoxy)-2,3-difluoro-N-((3-((1-methylpiperidin-4-yl)oxy)azetidin-1-yl)sulfonyl)benzamide] | 100 to 500
27 | CC[C@@H](Oc1ccc(C(=O)NS(=O)(=O)c2ccc(OCCNC)cc2)c(F)c1F)c1ccc(OCC2CC2)cn1 [(R)-4-(1-(5-(cyclopropylmethoxy)pyridin-2-yl)propoxy)-2,3-difluoro-N-((4-(2-(methylamino)ethoxy)phenyl)sulfonyl)benzamide] | < 100
28 | CC[C@@H](Oc1ccc(C(=O)NS(=O)(=O)N2CCC(OCCN3CCCC3)CC2)c(F)c1F)c1ccc(OCC2CC2)cn1 [(R)-4-(1-(5-(cyclopropylmethoxy)pyridin-2-yl)propoxy)-2,3-difluoro-N-((4-(2-(pyrrolidin-1-yl)ethoxy)piperidin-1-yl)sulfonyl)benzamide] | 100 to 500
29 | CC[C@@H](Oc1ccc(C(=O)NS(=O)(=O)N2CCN(CCCF)CC2)c(F)c1F)c1ccc(OCC2CC2)cn1 [(R)-4-(1-(5-(cyclopropylmethoxy)pyridin-2-yl)propoxy)-2,3-difluoro-N-((4-(3-fluoropropyl)piperazin-1-yl)sulfonyl)benzamide] | < 100
